The values below come from ChEMBL document CHEMBL1208753, “Peptide deformylase inhibitors with retro-amide scaffold: synthesis and structure-activity relationships” (Bioorg Med Chem Lett, 2010).

In brackets after ≈: the same amount, converted by molar mass.

One test concerns Streptococcus pneumoniae. Put plainly: Antimicrobial activity against Streptococcus pneumoniae ATCC 6305 after 48 hrs. Type of test: functional. The note with it: ATCC 6305, 48 h.
In a further test the target is T1, Peptide deformylase (Pseudomonas aeruginosa (strain ATCC 15692 / PAO1 / 1C / PRS 101 / LMG12228), UniProt Q9I7A8).
T1 sequence (Q9I7A8 whole entry): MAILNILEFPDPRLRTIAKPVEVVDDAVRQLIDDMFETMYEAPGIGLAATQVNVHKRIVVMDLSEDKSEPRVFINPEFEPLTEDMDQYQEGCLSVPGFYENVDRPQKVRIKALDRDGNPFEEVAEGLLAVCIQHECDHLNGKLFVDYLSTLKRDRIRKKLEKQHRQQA
Briefly: Inhibition of Pseudomonas aeruginosa Peptide deformylase by fluorescence analysis.

Another test has as its system Haemophilus influenzae. Put plainly: Antimicrobial activity against Haemophilus influenzae ATCC 51907 after 24 hrs. Type of test: functional. Particulars: ATCC 51907, 24 h.
The next test concerns Moraxella catarrhalis. Put plainly: Antimicrobial activity against Moraxella catarrhalis ATCC 43617 after 48 hrs. Type of test: functional. Particulars: ATCC 43617, 48 h.

In the case of `CC(C)(C)[C@H](NC(=O)c1cccs1)C(=O)N(CC(=O)NO)CC1CCCC1`, the MIC against Streptococcus pneumoniae was 12.5 µg/mL (≈ 31.6 µM); against Haemophilus influenzae, 1.6 µg/mL (≈ 4.05 µM); in the test on Moraxella catarrhalis, 0.2 µg/mL (≈ 0.506 µM). In addition, the IC50 (usually the midpoint of a concentration-inhibition curve) on Peptide deformylase was 19 nM.
For `COc1ccccc1NC(=O)N[C@H](C(=O)N(CC(=O)NO)CC1CCCC1)C(C)(C)C`, in that order: 0.2 µg/mL (≈ 0.46 µM), 0.2 µg/mL (≈ 0.46 µM), 0.1 µg/mL (≈ 0.23 µM) and 29 nM.
For `COc1ccccc1NC(=O)N[C@@H](CC(C)C)C(=O)N(CC(=O)NO)CC1CCCC1`, in that order: 3.2 µg/mL (≈ 7.36 µM), 3.2 µg/mL (≈ 7.36 µM), 0.8 µg/mL (≈ 1.84 µM) and 36 nM.
`COc1ccccc1NC(=O)N[C@H](C(=O)N(CCC1CCCC1)CC(=O)NO)C(C)(C)C`: the MIC against Streptococcus pneumoniae amounted to 0.4 µg/mL (≈ 0.892 µM); in the test on Haemophilus influenzae it was 0.8 µg/mL (≈ 1.78 µM); against Moraxella catarrhalis, 0.1 µg/mL (≈ 0.223 µM). Further, the IC50 at Peptide deformylase was 31 nM.
On to `CC(C)(C)[C@H](NC(=O)Nc1ccccc1)C(=O)N(CC(=O)NO)CC1CCCC1`, for which the MIC in the test on Streptococcus pneumoniae turned out to be 3.2 µg/mL (≈ 7.91 µM); in the test with Haemophilus influenzae it was 0.4 µg/mL (≈ 0.989 µM); with Moraxella catarrhalis it was 0.1 µg/mL (≈ 0.247 µM). The same molecule yielded a half-inhibitory concentration (IC50) on Peptide deformylase of 17 nM.
For `COc1ccccc1NC(=O)N1CCC[C@H]1C(=O)N(CC(=O)NO)CC1CCCC1`, in that order: 200 µg/mL (≈ 478 µM), 200 µg/mL (≈ 478 µM), 50 µg/mL (≈ 119 µM) and 116 nM.
For `COc1ccccc1NC(=O)N[C@H](C(=O)N(CCC(C)C)CC(=O)NO)C(C)(C)C`, in that order: 0.8 µg/mL (≈ 1.89 µM), 0.8 µg/mL (≈ 1.89 µM), 0.1 µg/mL (≈ 0.237 µM) and 21 nM.
In the case of `COc1ccccc1NC(=O)N[C@H](C(=O)N(CC(=O)NO)CC1CCC1)C(C)(C)C`, the MIC with Streptococcus pneumoniae is 0.4 µg/mL (≈ 0.951 µM); in the test with Haemophilus influenzae, 0.4 µg/mL (≈ 0.951 µM); with Moraxella catarrhalis, 0.1 µg/mL (≈ 0.238 µM). On Peptide deformylase, the IC50 is 13 nM.
In the case of `CC(C)(C)[C@H](NC(=O)N1CCCCC1)C(=O)N(CC(=O)NO)CC1CCCC1`, the values for the MIC against Streptococcus pneumoniae, in the test with Haemophilus influenzae and in the test with Moraxella catarrhalis were 12.5 µg/mL (≈ 31.5 µM), 12.5 µg/mL (≈ 31.5 µM) and 0.8 µg/mL (≈ 2.02 µM), respectively. Also, half-maximal inhibition on Peptide deformylase (IC50) required 47 nM.
On to `CN(C(=O)N[C@H](C(=O)N(CC(=O)NO)CC1CCCC1)C(C)(C)C)c1ccccc1`, for which the MIC against Streptococcus pneumoniae was determined as 50 µg/mL (≈ 119 µM); with Haemophilus influenzae, 25 µg/mL (≈ 59.7 µM); with Moraxella catarrhalis, 0.4 µg/mL (≈ 0.956 µM). Moreover, at Peptide deformylase, half-maximal inhibition (IC50) required 50 nM.
The corresponding values for `CC(C)(C)[C@H](NC(=O)Nc1cccnc1)C(=O)N(CC(=O)NO)CC1CCCC1` are 6.3 µg/mL (≈ 15.5 µM), 3.2 µg/mL (≈ 7.89 µM), 0.1 µg/mL (≈ 0.247 µM) and 49 nM.
For `CC(C)(C)[C@H](NC(=O)N1CCOCC1)C(=O)N(CC(=O)NO)CC1CCCC1`, in that order: 25 µg/mL (≈ 62.7 µM), 12.5 µg/mL (≈ 31.4 µM), 0.2 µg/mL (≈ 0.502 µM) and 28 nM.
`COc1ccccc1NC(=O)N[C@@H](C)C(=O)N(CC(=O)NO)CC1CCCC1`: the MIC against Streptococcus pneumoniae is 6.3 µg/mL (≈ 16.1 µM); against Haemophilus influenzae, 12.5 µg/mL (≈ 31.9 µM); against Moraxella catarrhalis, 12.5 µg/mL (≈ 31.9 µM). This molecule yielded an IC50 at Peptide deformylase of 42 nM.
As for `COCCNC(=O)N[C@H](C(=O)N(CC(=O)NO)CC1CCCC1)C(C)(C)C`, the MIC with Streptococcus pneumoniae was determined as 6.3 µg/mL (≈ 16.3 µM); with Haemophilus influenzae, 6.3 µg/mL (≈ 16.3 µM); with Moraxella catarrhalis, 0.1 µg/mL (≈ 0.259 µM). This molecule yielded a half-inhibitory concentration (IC50) on Peptide deformylase of 42 nM.
Take `COc1ccccc1C(=O)N[C@H](C(=O)N(CC(=O)NO)CC1CCCC1)C(C)(C)C`: the MIC was 50 µg/mL (≈ 119 µM) against Streptococcus pneumoniae, 0.4 µg/mL (≈ 0.953 µM) in the test with Haemophilus influenzae and 0.1 µg/mL (≈ 0.238 µM) against Moraxella catarrhalis. Also, the 50% inhibitory concentration (IC50) against Peptide deformylase was 11 nM.
The corresponding values for `CC(C)(C)[C@H](NC(=O)Nc1ccccn1)C(=O)N(CC(=O)NO)CC1CCCC1` are 12.5 µg/mL (≈ 30.8 µM), 0.8 µg/mL (≈ 1.97 µM), 0.1 µg/mL (≈ 0.247 µM) and 54 nM.
As for `COc1ccccc1NC(=O)N[C@@H](Cc1ccccc1)C(=O)N(CC(=O)NO)CC1CCCC1`, the MIC against Streptococcus pneumoniae came to 25 µg/mL (≈ 53.4 µM); in the test with Haemophilus influenzae, 25 µg/mL (≈ 53.4 µM); with Moraxella catarrhalis it was 12.5 µg/mL (≈ 26.7 µM). Moreover, the IC50 against Peptide deformylase is 61 nM.
Consider `CC(C)(C)[C@H](NC(=O)c1ccccc1)C(=O)N(CC(=O)NO)CC1CCCC1`, for which the values for the MIC with Streptococcus pneumoniae, against Haemophilus influenzae and against Moraxella catarrhalis were 12.5 µg/mL (≈ 32.1 µM), 3.2 µg/mL (≈ 8.22 µM) and 0.1 µg/mL (≈ 0.257 µM), respectively. Besides, inhibition against Peptide deformylase was half-maximal at 41 nM (IC50).
For `CC[C@@H](C)[C@H](NC(=O)Nc1ccccc1OC)C(=O)N(CC(=O)NO)CC1CCCC1`, in that order: 3.2 µg/mL (≈ 7.36 µM), 1.6 µg/mL (≈ 3.68 µM), 0.2 µg/mL (≈ 0.46 µM) and 32 nM.
For `CC(C)(C)[C@H](NC(=O)Nc1ccncc1)C(=O)N(CC(=O)NO)CC1CCCC1`, in that order: 25 µg/mL (≈ 61.7 µM), 6.3 µg/mL (≈ 15.5 µM), 0.2 µg/mL (≈ 0.493 µM) and 65 nM.
The corresponding values for `COc1ccccc1NC(=O)N[C@H](C(=O)N(CC(=O)NO)CC1CC1)C(C)(C)C` are 12.5 µg/mL (≈ 30.8 µM), 6.3 µg/mL (≈ 15.5 µM), 1.6 µg/mL (≈ 3.94 µM) and 15 nM.
Consider `CC(C)(C)[C@H](NC(=O)NC1CCCCC1)C(=O)N(CC(=O)NO)CC1CCCC1`, for which the results for the MIC in the test on Streptococcus pneumoniae, against Haemophilus influenzae and with Moraxella catarrhalis were 6.3 µg/mL (≈ 15.3 µM), 6.3 µg/mL (≈ 15.3 µM) and 0.1 µg/mL (≈ 0.244 µM), respectively. At Peptide deformylase, this molecule gave a 50% inhibitory concentration (IC50) of 55 nM.
As to `COc1ccccc1NC(=O)N[C@H](C(=O)N(CC(=O)NO)CC1CCCC1)C(C)C`, the MIC came to 0.8 µg/mL (≈ 1.9 µM) in the test with Streptococcus pneumoniae, 0.8 µg/mL (≈ 1.9 µM) against Haemophilus influenzae and 0.1 µg/mL (≈ 0.238 µM) with Moraxella catarrhalis. At Peptide deformylase, this molecule returned a concentration for half-maximal inhibition (IC50) of 13 nM.
With `CC(C)C(=O)N[C@H](C(=O)N(CC(=O)NO)CC1CCCC1)C(C)(C)C`, the figures for the MIC in the test with Streptococcus pneumoniae, in the test with Haemophilus influenzae and against Moraxella catarrhalis were 100 µg/mL (≈ 281 µM), 50 µg/mL (≈ 141 µM) and 0.8 µg/mL (≈ 2.25 µM), respectively. The molecule further displayed a 50% inhibitory concentration (IC50) against Peptide deformylase of 52 nM.
